According to patent US12011444B2, “N-substituted indole derivatives as PGE2 receptor modulators” (Idorsia Pharmaceuticals Ltd, priority 2015, dated 2024):

Columns and labels:
PTRGER4 (EP4) = PTRGER4 (EP4) (Homo sapiens (Human), UniProt P35408); experiment: hEP4 b-arrestin assay (PathHunter HEK 293 PTGER4 b-arrestin cells); format: cell-based; details: antagonistic activity on hEP4; mean where measured multiple times
Procedure, shortened: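 Antagonist mode: compound is given 15 min at 37 °C, then 20 nM (final) PGE2 for 120 min, in HEK293 cells stably expressing EP4 fused to ProLink and β-arrestin 2 fused to EA. Recruitment read as β-gal luminescence after 1 h reagent at room temperature, as percent of DMSO control.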

PTGER2 (EP2) = PTGER2 (EP2) (Homo sapiens (Human), UniProt P43116); experiment: hEP2 b-arrestin assay (PathHunter HEK 293 PTGER2 b-arrestin cells); format: cell-based; details: antagonistic activity on hEP2; mean where measured multiple times
Procedure, shortened: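 Readout is β-galactosidase complementation luminescence, expressed as percent of DMSO control (duplicates). PathHunter HEK293 EP2/β-arrestin 2 cells, grown 24 h, received compound for 15 min at 37 °C before a 120 min challenge with PGE2 at 5 μM final, followed by 1 h detection at room temperature.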

PTRGER4 (EP4), sequence (P35408 whole entry, looked up, the tested form may be a part): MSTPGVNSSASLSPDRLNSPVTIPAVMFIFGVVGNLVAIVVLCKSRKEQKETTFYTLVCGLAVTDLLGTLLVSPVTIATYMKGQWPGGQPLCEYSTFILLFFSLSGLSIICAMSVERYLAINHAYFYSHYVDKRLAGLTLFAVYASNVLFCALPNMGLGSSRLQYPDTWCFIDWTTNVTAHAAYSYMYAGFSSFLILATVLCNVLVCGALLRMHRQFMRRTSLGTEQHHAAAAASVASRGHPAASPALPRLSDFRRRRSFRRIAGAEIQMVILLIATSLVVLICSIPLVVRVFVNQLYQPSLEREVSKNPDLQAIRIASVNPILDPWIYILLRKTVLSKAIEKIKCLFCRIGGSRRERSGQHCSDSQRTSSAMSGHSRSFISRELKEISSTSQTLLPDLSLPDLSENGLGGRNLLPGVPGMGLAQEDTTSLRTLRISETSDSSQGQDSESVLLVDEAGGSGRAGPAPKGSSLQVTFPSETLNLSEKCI
PTGER2 (EP2), sequence (P43116 whole entry): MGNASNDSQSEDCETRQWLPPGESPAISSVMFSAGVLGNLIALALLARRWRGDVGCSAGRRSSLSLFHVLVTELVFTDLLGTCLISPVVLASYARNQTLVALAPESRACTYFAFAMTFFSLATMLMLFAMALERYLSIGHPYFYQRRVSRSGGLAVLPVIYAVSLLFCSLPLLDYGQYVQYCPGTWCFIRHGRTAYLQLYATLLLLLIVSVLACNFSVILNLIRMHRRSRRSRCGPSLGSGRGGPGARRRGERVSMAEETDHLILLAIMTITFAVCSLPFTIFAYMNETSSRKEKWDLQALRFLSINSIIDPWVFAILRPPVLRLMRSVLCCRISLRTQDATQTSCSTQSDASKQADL

Row | Compound | IC50 (PTRGER4 (EP4)) [nM] | IC50 (PTGER2 (EP2)) [nM]
1 | CCOc1cc(-c2cc(NCCn3c(C)cc4cc(OC)cc(F)c43)ncn2)sc1C(=O)O [compound 259] | 127 | 37
2 | COc1cc(-c2cc(NCCn3c(C)cc4c(OC)ccc(F)c43)ncn2)ccc1C(=O)O [compound 260] | 536 | 28
3 | CCOc1cc(-c2cc(NCCn3c(C)cc4c(OC)ccc(C)c43)ncn2)sc1C(=O)O [compound 261] | 71 | 12
4 | Cc1ccc2c(c1)cc(C)n2CCNc1cc(-c2ccc(C(=O)O)c(CC(C)C)c2)ncn1 [compound 262] | 925 | 35
5 | CCCc1cc(-c2cc(NCCn3c(C)cc4cc(Cl)cc(F)c43)ncn2)ccc1C(=O)O [compound 263] | 587 | 90
6 | CCc1cc(-c2cc(NCCn3c(C)cc4c(C)cc(F)cc43)ncn2)cc(Cl)c1C(=O)O [compound 264] | 287 | 71
7 | CCc1cc(-c2cc(NCCn3c(C)cc4c(C)ccc(F)c43)ncn2)cc(F)c1C(=O)O [compound 265] | 491 | 33
8 | CCCc1cc(-c2cc(NCCn3c(C)cc4cc(C)cc(Cl)c43)ncn2)ccc1C(=O)O [compound 266] | 953 | 53
9 | CCCc1cc(-c2cc(NCCn3c(C)cc4cc(C)cc(F)c43)ncn2)ccc1C(=O)O [compound 267] | 317 | 26
10 | Cc1cc2c(Cl)cccc2n1CCNc1cc(-c2ccc(C(=O)O)c(CC(C)C)c2)ncn1 [compound 268] | 635 | 11
11 | Cc1cc(F)cc2c1cc(C)n2CCNc1cc(-c2cc(C(F)(F)F)c(C(=O)O)s2)ncn1 [compound 269] | 117 | 61
12 | CSc1cc(-c2cc(NCCn3c(C)cc4c(C)c(F)cc(Cl)c43)ncn2)ccc1C(=O)O [compound 270] | 513 | 46
13 | CCCc1cc(-c2cc(NCCn3c(C)cc4c(OC)cccc43)ncn2)ccc1C(=O)O [compound 271] | 153 | 5
14 | CCOc1cc(-c2cc(NCCn3c(C)cc4cc(F)c(Cl)c(Cl)c43)ncn2)sc1C(=O)O [compound 272] | 716 | 8
15 | CCOc1cc(-c2cc(NCCn3c(C)cc4cc(F)c(F)c(F)c43)ncn2)sc1C(=O)O [compound 273] | 67 | 1
16 | CCOc1cc(-c2cc(NCCn3c(C)cc4c(F)cc(F)c(F)c43)ncn2)sc1C(=O)O [compound 274] | 43 | 1
17 | CCOc1cc(-c2cc(NCCn3c(C)cc4c(F)c(F)cc(F)c43)ncn2)sc1C(=O)O [compound 275] | 25 | 1
18 | COc1ccc(Cl)c2c1cc(C)n2CCNc1cc(-c2cc(C)c(C(=O)O)c(F)c2)ncn1 [compound 276] | 885 | 65
19 | COc1ccc(F)c2c1cc(C)n2CCNc1cc(-c2cc(C)c(C(=O)O)c(F)c2)ncn1 [compound 277] | 416 | 17
20 | CCOc1cc(-c2cc(NCCn3c(C)cc4c(F)c(F)ccc43)ncn2)ccc1C(=O)O [compound 278] | 999 | 9
21 | CCOc1cc(-c2cc(NCCn3c(C)cc4c(Cl)cc(Cl)cc43)ncn2)ccc1C(=O)O [compound 279] | 313 | 22
22 | CCOc1cc(-c2cc(NCCn3c(C)cc4c(Cl)cc(F)cc43)ncn2)ccc1C(=O)O [compound 280] | 652 | 16
23 | CCOc1cc(-c2cc(NCCn3c(C)cc4c(Cl)ccc(F)c43)ncn2)ccc1C(=O)O [compound 281] | 435 | 27
24 | CCOc1cc(-c2cc(NCCn3c(C)cc4c(C)cc(F)cc43)ncn2)ccc1C(=O)O [compound 282] | 294 | 11
25 | CCc1cc(-c2cc(NCCn3c(C)cc4c(OC)cc(F)cc43)ncn2)ccc1C(=O)O [compound 283] | 132 | 17
